Ends that are not written are not given here.

The nature of this experiment: biological activity of recombinantly produced (1-38)PTH. The conditions noted are these: recombinant product from Gen55-Asn-Gly-Pro-(1-38)PTH fusion. The protocol: From a non-optimized 20 litre fermentation a 78 g wet cell pellet with 50% expression of the fusion protein is harvested. Following lysis and centrifugation, 18 g of “90% pure” inclusion bodies are obtained. Following the acid stop step and centrifugation/filtration about 470 mg Gly-pro-PTH are detected. After HPLC on C4-Vydac, 355 mg of peptide are detected, decreasing to 321 mg after SP-Sepharose cation-exchange. Enzymatic removal of the Gly and Pro residues is carried out at 2 mg/ml.

On to “hPTH-(1-38)-OH (SVSEIQLMHNLGKHLNSMERVEWLRKKLQDVHNFVALG-OH; UniProt P01270 32-69, looked up, fragment) [(1-38)PTH, natural human PTH fragment 1-38, produced recombinantly from a gp55 fusion protein in E. coli]”, for which the biological activity result was “fully biologically active”.

For the origin of these results see patent US20080318838A1, “PEPTIDES” (priority 1992, published 2008).
